Measured values as given in patent US9399028B2, “Treatment of drug resistant cancer” (ROCKEFELLER UNIVERSITY (THE), priority 2012, dated 2016).
Counter-ions that a name gives are not always drawn.

Columns and labels:
[1] = system: Tyr::CreER; B-RafV600E/+; Ptenlox/+ and Ptenlox/lox mice; assay: Genetically-initiated model of melanoma progression; type: in vivo, mouse
Method: The Tyr::CreER; B-Raf^V600E/+, Pten^lox/+/Tyr::CreER; B-Raf^V600E/+, Pten^lox/lox conditional model of melanoma progression was previously established and characterized by Dankort et al. (2009). Briefly, melanoma in these mice was induced at 6 weeks of age by intraperitoneally injecting 4-HT (H6278, 70% isomer, Sigma-Aldrich, St Louis, Mo.) at 25 mg/kg administered in peanut oil on three consecutive days. The 4-HT stock solution was prepared by dissolving it in 100% EtOH at 50 mg/mL by heating at 45° C. for 5 min and mixing. Once dissolved, the stock 4-HT solution was then diluted by 10-fold in peanut oil, yielding a 5 mg/mL 4-HT working solution that was then injected into mice. After the first 4-HT injection, mice were blindedly assigned to receive either a control diet or a diet supplemented with GW3965 (100 mg/kg). Mice were examined three times a week for the presence and progression of melanoma lesions. At day 35, dorsal skin samples were harvested from control-treated and GW3965-treated mice, fixed in 4% PFA and photographed at 10×. The percentage of pigmented melanoma lesion area out of the total skin area was quantified using ImageJ. For survival analyses, mice were monitored daily for melanoma progression and euthanized according to a standard body condition score, taking into account initial signs of moribund state and discomfort associated with the progression of melanoma burden. Post-mortem, the lungs, brains, and salivary glands were harvested and examined for the presence of macroscopic melanoma lesions.

ApoE = ApoE expression in vivo (western blot, qRT-PCR) in mouse tissues, white blood cells and tumors; settings: for ApoE protein expression in systemic adipose, lung, and brain tissues: chow 20 mg/kg for 10 days, western blot; for ApoE transcript levels in circulating white blood cells: diet 20 mg/kg for 10 days
Method: FIG. 29A-K. Therapeutic Delivery of LXR Agonists Upregulates Melanoma-Derived and Systemic ApoE Expression. (FIG. 29A-FIG. 29B) ApoE expression levels, quantified by qRT-PCR, in subcutaneous tumors formed by B16F10 mouse melanoma cells injected into C57BL/6 mice. After 5-mm3 tumor formation, mice were fed a control diet or diet containing GW3965 (20 mg/kg) (FIG. 29A) or T0901317 (20 mg/kg) (FIG. 29B) for 7 days. n=3-4. (FIG. 29C-FIG. 29E) ApoE transcript expression in primary tumors (FIG. 29C), lung metastases (FIG. 29D), and brain metastases (FIG. 29E) formed by MeWo human melanoma cells grafted onto NOD Scid mice that were administered control chow or chow supplemented with GW3965 (20 mg/kg). ApoE levels were assessed on day 35 (FIG. 29C), day 153 (FIG. 29D), and day 34 (FIG. 29E) post-injection of the cancer cells. n=3-5. (FIG. 29F) Relative expression levels of LXRα, LXRβ, and ApoE were determined by qRT-PCR in B16F10 mouse melanoma cells expressing a control hairpin or an shRNA targeting mouse LXRα (sh_mLXRα), mouse LXRβ (sh_mLXRβ), or mouse ApoE (sh_mApoE). (FIG. 29G-FIG. 29H) ApoE (FIG. 29G) and ABCA1 (FIG. 29H) mRNA levels, measured by qRT-PCR, in B16F10 cells expressing a control shRNA or shRNAs targeting mouse LXRβ or mouse ApoE. The cells were treated with DMSO or GW3965 at 5 μM for 48 hours. n=3. (FIG. 29I) ABCA1 mRNA levels, measured by qRT-PCR, in systemic white blood cells extracted from LXRα−/− or LXRβ−/− mice fed a control diet or a GW3965-supplemented diet (20 mg/kg) for 10 days. n=3-4. (FIG. 29J) Relative expression of ApoE mRNA, expressed as the frequency of SAGE tags, in mouse skin and lung tissues was determined using the public mSAGE Expression Matrix database available through the NCI-funded Cancer Genome Anatomy Project (CGAP). (FIG. 29K) Relative expression of ApoE mRNA, determined by qRT-PCR, in MeWo melanoma cells dissociated from lung metastatic nodules (LM2) or primary tumors relative to control unselected MeWo parental cells. n=3.
FIG. 30A-I. LXRβ Agonism Suppresses Melanoma Tumor Growth and Metastasis by Inducing Melanoma-Derived and Systemic ApoE Expression. […] (FIG. 30B) Quantification of ApoE protein expression based on western blots shown in (FIG. 30A). […] (FIG. 30C) Expression levels of ApoE, determined by qRT-PCR, in systemic white blood cells from mice fed a control diet or a diet supplemented with GW3965 or T0901317 at 20 mg/kg for 10 days. n=3-6. […] Once the tumors reached 5-10 mm3 in volume, mice were fed a control diet or a diet supplemented with GW3965 (20 mg/kg) for 7 days, after which final tumor volume was measured. […] (FIG. 30E) ApoE transcript levels, quantified by qRT-PCR, in systemic white blood cells extracted from LXRα−/− or LXRβ−/− mice fed a control diet or a GW3965-supplemented diet (20 mg/kg) for 10 days. n=3-5. […]

Compound	overall survival times ([1]; Ptenlox/+ and Ptenlox/lox mice, diet 100 mg/kg)	number of lymphatic metastases detected post-mortem ([1]; Ptenlox/lox mice, salivary gland lymph nodes, 100 mg/kg)	tumor progression ([1]; diet 100 mg/kg after melanoma initiation)	ApoE protein expression in systemic adipose, lung, and brain tissues (ApoE)	ApoE transcript levels in circulating white blood cells (ApoE)
O=C(O)Cc1cccc(OCCCN(Cc2cccc(C(F)(F)F)c2Cl)CC(c2ccccc2)c2ccccc2)c1 [GW3965 2, 3-[3-[N-(2-Chloro-3-trifluoromethylbenzyl)-(2,2-diphenylethyl)amino]propyloxy]phenylacetic acid hydrochloride]	significantly extended	decrease	attenuated	significantly elevated	upregulated
O=S(=O)(c1ccccc1)N(CC(F)(F)F)c1ccc(C(O)(C(F)(F)F)C(F)(F)F)cc1 [T0901317 1]				significantly elevated	upregulated
